Test results taken from patent US12459957B2, “Therapeutic compounds and methods” (GENENTECH, INC., priority 2021, dated 2025).

tested on: neutrophils (PMA-stimulated NETosis); assay: Quantification of NETosis using SYTOX Green; assay type: cell-based, human; conditions: compound at 5 uM; NET-forming cells as percentage of total cells; vehicle 79.66, untreated 14.54
From the text: Semi-automated analysis of both phase and fluorescence images of SYTOX Green-stained neutrophils used a MATLAB algorithm. Total cells were counted by scoring phase standard deviation and radial symmetry. NETosis was classified in cells by measuring the DNA area in the fluorescence image and comparing with a select internal training set for each experiment. Unstimulated cells and PMA-stimulated, pyocyanin-inhibited cells served as negative controls. PMA-stimulated cells served as a positive control. NET-forming cells are presented as a percentage of total cells.

In order of falling “5 uM (% NETosis)” value:
1. COc1cccc(C#N)c1-c1cc2n(n1)Cc1ccc(NC(C)=O)cc1OC2 [Example 94]  90.90%
2. CC(=O)Nc1ccc2c(c1)OCc1cc(-c3cc[nH]n3)nn1C2 [Example 57]  87.44%
3. COc1ncc(-c2cc3n(n2)Cc2ccc(NC(C)=O)cc2OC3)cn1 [Example 77]  86.51%
4. CC(=O)Nc1ccc2c(c1)OCc1cc(-c3ccc(C(=O)N4CCOCC4)cc3)nn1C2 [Example 106]  86.21%
5. CC(=O)Nc1ccc2c(c1)OCc1cc(-c3ccc(S(=O)(=O)N4CCOCC4)cc3)nn1C2 [Example 95]  85.90%
6. CC(=O)Nc1ccc2c(c1)OCc1cc(-c3ccc(CN(C)C)cc3)nn1C2 [Example 107]  85.67%
7. CC(=O)Nc1ccc2c(c1)OCc1cc(-c3ccnc(NC(C)=O)c3)nn1C2 [Example 102]  85.50%
8. CC(=O)Nc1ccc2c(c1)OCc1cc(-c3c(C)n[nH]c3C)nn1C2 [Example 75]  85.26%
9. CNC(=O)c1cccc(-c2cc3n(n2)Cc2ccc(NC(C)=O)cc2OC3)c1 [Example 101]  85.18%
10. CC(=O)Nc1ccc2c(c1)OCc1cc(-c3cccc(C(=O)N(C)C)c3)nn1C2 [Example 100]  85.05%
11. CC(=O)Nc1ccc2c(c1)OCc1cc(-c3cn[nH]c3C)nn1C2 [Example 66]  84.91%
12. CNC(=O)c1ccc(F)c(-c2cc3n(n2)Cc2ccc(NC(C)=O)cc2OC3)c1 [Example 99]  84.59%
13. CC(=O)Nc1ccc2c(c1)OCc1cc(-c3cccc4c3CN(C)C4)nn1C2 [Example 89]  84.44%
14. CC(=O)Nc1ccc2c(c1)OCc1cc(-c3cccc4[nH]c(=O)[nH]c34)nn1C2 [Example 86]  84.35%
15. CC(=O)Nc1ccc2c(c1)OCc1cc(-c3ccccc3S(C)(=O)=O)nn1C2 [Example 81]  84.34%
16. CC(=O)Nc1ccc2c(c1)OCc1cc(-c3cccnc3C3CC3)nn1C2 [Example 65]  83.56%
17. CC(=O)Nc1ccc2c(c1)OCc1cc(-c3ccc(N4CCCC4)nc3)nn1C2 [Example 79]  83.33%
18. C#Cc1ccccc1-c1cc2n(n1)Cc1ccc(NC(C)=O)cc1OC2 [Example 44]  83.27%
19. FC(F)(F)CNc1ccc2c(c1)OCc1cc(-c3ccccc3)nn1C2 [Example 37]  83.25%
20. CNC(=O)c1ccc(-c2cc3n(n2)Cc2ccc(NC(C)=O)cc2OC3)cn1 [Example 73]  82.63%
21. OCC1(Nc2ccc3c(c2)OCc2cc(-c4ccccc4)nn2C3)CC1 [Example 42]  82.57%
22. CC(=O)Nc1ccc2c(c1)OCc1cc(-c3ccc(S(=O)(=O)N4CCN(C)CC4)cc3)nn1C2 [Example 96]  82.37%
23. CNS(=O)(=O)c1ccccc1-c1cc2n(n1)Cc1ccc(NC(C)=O)cc1OC2 [Example 97]  81.93%
24. CC(C)(C)Nc1ccc2c(c1)OCc1cc(-c3ccccc3)nn1C2 [Example 38]  81.48%
25. CC(=O)Nc1ccc2c(c1)OCc1cc(-c3cnn(CCN(C)C)c3)nn1C2 [Example 92]  81.09%
26. Cn1cc(Nc2ccc3c(c2)OCc2cc(-c4ccccc4)nn2C3)c(C#N)n1 [Example 34]  80.80%
27. CC(=O)Nc1ccc2c(c1)OCc1cc(-c3cnccc3C#N)nn1C2 [Example 72]  80.10%
28. CC(=O)Nc1ccc2c(c1)OCc1cc(-c3cnc4[nH]ccc4c3)nn1C2 [Example 63]  80.04%
29. CC(=O)Nc1ccc2c(c1)OCc1cc(-c3ccc4[nH]c(=O)oc4c3)nn1C2 [Example 87]  78.92%
30. CC(=O)Nc1ccc2c(c1)OCc1cc(-c3cccc4c3CN(C)C4=O)nn1C2 [Example 90]  78.83%
31. COc1cnccc1-c1cc2n(n1)Cc1ccc(NC(C)=O)cc1OC2 [Example 61]  78.57%
32. COc1ccncc1-c1cc2n(n1)Cc1ccc(NC(C)=O)cc1OC2 [Example 70]  78.10%
33. CC(=O)Nc1ccc2c(c1)OCc1cc(-c3ccc(N(C)C(C)=O)cc3)nn1C2 [Example 82]  77.67%
34. CC(=O)Nc1ccc2c(c1)OCc1cc(-c3ccnc4[nH]ccc34)nn1C2 [Example 91]  77.13%
35. CC(=O)Nc1ccc2c(c1)OCc1cc(-c3ccc(S(C)(=O)=O)nc3)nn1C2 [Example 64]  75.82%
36. CC(=O)Nc1ccc2c(c1)OCc1cc(-c3cccc(N(C)C(C)=O)c3)nn1C2 [Example 103]  75.39%
37. COc1cc(-c2cc3n(n2)Cc2ccc(NC(C)=O)cc2OC3)c(OC)nn1 [Example 85]  74.51%
38. Cc1cn[nH]c1Nc1ccc2c(c1)OCc1cc(-c3ccccc3)nn1C2 [Example 35]  73.98%
39. C#CCNc1ccc2c(c1)OCc1cc(-c3ccccc3)nn1C2 [Example 41]  73.65%
40. CC(=O)Nc1ccc2c(c1)OCc1cc(-c3cnn(CC(F)(F)F)c3)nn1C2 [Example 93]  73.17%
41. CC(=O)Nc1ccc2c(c1)OCc1cc(-c3ccccc3C)nn1C2 [Example 50]  72.49%
42. CC(=O)Nc1ccc2c(c1)OCc1cc(-c3ccccc3NS(C)(=O)=O)nn1C2 [Example 88]  71.64%
43. FC1(F)CC1CNc1ccc2c(c1)OCc1cc(-c3ccccc3)nn1C2 (stereo not shown) [Example 40]  71.44%
44. CC(=O)Nc1ccc2c(c1)OCc1cc(-c3ccccc3NC(C)=O)nn1C2 [Example 105]  70.78%
45. COc1cncc(-c2cc3n(n2)Cc2ccc(NC(C)=O)cc2OC3)c1 [Example 71]  69.95%
46. CC(=O)Nc1ccc2c(c1)OCc1cc(-c3c(C)cnn3C)nn1C2 [Example 59]  66.88%
47. CC(=O)Nc1ccc2c(c1)OCc1cc(-c3ccnc(C#N)c3)nn1C2 [Example 69]  66.18%
48. CC(=O)Nc1ccc2c(c1)OCc1cc(-c3cnco3)nn1C2 [Example 52]  66.03%
49. CC(=O)Nc1ccc2c(c1)OCc1cc(-c3ccnn3C3CC3)nn1C2 [Example 60]  63.78%
50. CC(=O)Nc1ccc2c(c1)OCc1cc(-c3ccccc3C3CC3)nn1C2 [Example 76]  63.32%
51. CC(=O)Nc1ccc2c(c1)OCc1cc(-c3cccc(CC#N)c3)nn1C2 [Example 47]  62.82%
52. CC(=O)Nc1ccc2c(c1)OCc1cc(-c3cccc(C#N)n3)nn1C2 [Example 78]  58.91%
53. CC(=O)Nc1ccc2c(c1)OCc1cc(-c3cncn3C)nn1C2 [Example 53]  57.77%
54. CC(=O)Nc1ccc2c(c1)OCc1cc(-c3ccc(F)cc3O)nn1C2 [Example 51]  57.20%
55. CC(=O)Nc1ccc2c(c1)OCc1cc(-c3ccc(F)cc3C#N)nn1C2 [Example 45]  56.95%
56. COc1ccc(-c2cc3n(n2)Cc2ccc(NC(C)=O)cc2OC3)c(C)c1 [Example 83]  51.91%
57. CC(=O)Nc1ccc2c(c1)OCc1cc(-c3ccc(F)cc3CO)nn1C2 [Example 46, N-(2-(4-fluoro-2-(hydroxymethyl)phenyl)-4H,10H-benzo[f]pyrazolo[5,1-c][1,4]oxazepin-7-yl)acetamide]  51.25%
58. CSc1ccccc1-c1cc2n(n1)Cc1ccc(NC(C)=O)cc1OC2 [Example 43]  49.48%
59. CC(=O)NCc1cc(-c2cc3n(n2)Cc2ccc(NC(C)=O)cc2OC3)ccc1F [Example 98]  48.65%
60. CC(=O)Nc1ccc2c(c1)OCc1cc(-c3cccc(S(C)(=O)=O)c3)nn1C2 [Example 80]  46.95%
61. CC(=O)Nc1ccc2c(c1)OCc1cc(-c3ccc4c(c3)NC(=O)C4)nn1C2 [Example 84]  42.93%
62. CC(=O)Nc1ccc2c(c1)OCc1cc(-c3c(F)cccc3F)nn1C2 [Example 48]  42.40%
63. CC(=O)Nc1ccc2c(c1)OCc1cc(-c3c(O)cccc3F)nn1C2 [Example 49]  42.24%
64. CC(=O)Nc1ccc2c(c1)OCc1cc(-c3ccnc(C4CC4)c3)nn1C2 [Example 62]  41.23%
65. CC(=O)Nc1ccc2c(c1)OCc1cc(-c3cccc(F)c3)nn1C2 [Example 56]  35.77%
66. CC(=O)Nc1cccc(-c2cc3n(n2)Cc2ccc(NC(C)=O)cc2OC3)c1 [Example 104]  26.79%

tested on: neutrophils (PMA-stimulated ROS); assay: ROS detection assay (ROS-Glo, H2O2); assay type: cell-based; conditions: Neutrophil; human neutrophils, 30 min preincubation, 50 nM PMA for 30 min
Protocol: ROS were measured in neutrophils using the ROS-Glo bioluminescent assay (Promega) for the direct detection of H2O2. Neutrophils were isolated from fresh human blood using a biphasic Histopaque gradient as described here. Cells (100 uL per well) were plated in 96-well plates at a density of 200,000 cells/mL in high glucose DMEM medium. Cells were preincubated with either DMSO vehicle or compounds (10-point dilution curve starting at 2 uM with 3-fold serial dilution) for 30 min, and then stimulated with 50 nM PMA for 30 min. Luminescence, after the addition of H2O2 substrate solution for 20 min, and then ROS-Glo detection solution for 20 min, was recorded on a luminescence plate reader. The fifty percent inhibitory concentration (IC50) was determined with GraphPad Prism by plotting the assay output (RLU) versus the logarithm of the compound concentration using a non-linear sigmoid with variable slope algorithm with the default curve-fitting parameters in the Prism software.

In order of falling IC50:
1. CC(=O)Nc1ccc2c(c1)OCc1cc(-c3cnn(C)c3)nn1C2 [Example 112]  3050 nM
2. CC(=O)Nc1ccc2c(c1)OCc1cc(-c3c[nH]nc3C(C)C)nn1C2 [Example 111]  2100 nM
3. CC(=O)Nc1ccc2c(c1)OCc1cc(-c3cn(C)nc3C(F)(F)F)nn1C2 [Example 110]  1580 nM
4. CC(=O)Nc1ccc2c(c1)OCc1cc(-c3cn(C)nc3C)nn1C2 [Example 113]  1460 nM
5. CC(=O)Nc1ccc2c(c1)OCc1cc(-c3cnn(C4CC4)c3)nn1C2 [Example 109]  480 nM
6. CCn1cc(-c2cc3n(n2)Cc2ccc(NC(C)=O)cc2OC3)cn1 [Example 114]  405 nM
7. CC(=O)Nc1ccc2c(c1)OCc1cc(-c3cnn(C(C)C)c3)nn1C2 [Example 108]  285 nM
